Data on eleven compounds can be found in US8487108B2, “Piperidinyl carbamate intermediates for the synthesis of aspartic protease inhibitors” (Vitae Pharmaceuticals, Inc., priority 2005, dated 2013).

A value given as a limit tells only on which side of the number the result lay.

This test concerns the target T1, trypsin-activated recombinant human renin (Homo sapiens, UniProt P00797).
T1 sequence (P00797 67-406): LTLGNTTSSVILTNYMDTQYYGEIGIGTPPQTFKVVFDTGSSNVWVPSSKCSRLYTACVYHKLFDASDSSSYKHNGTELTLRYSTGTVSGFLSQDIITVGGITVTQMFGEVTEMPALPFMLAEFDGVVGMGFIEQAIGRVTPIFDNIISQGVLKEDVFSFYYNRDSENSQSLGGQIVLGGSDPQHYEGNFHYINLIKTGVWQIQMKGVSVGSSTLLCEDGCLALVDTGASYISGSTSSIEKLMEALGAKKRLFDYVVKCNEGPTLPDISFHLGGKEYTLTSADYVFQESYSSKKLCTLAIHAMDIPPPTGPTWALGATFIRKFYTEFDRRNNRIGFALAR
Kind of test: Renin fluorescence assay (internally quenched peptide substrate). The format is biochemical. The note with it: compounds I*. How it is done: The sequence of this peptide corresponds to the sequence of human angiotensinogen. The following test protocol can be used. All reactions are carried out in a flat bottom white opaque microtiter plate. A 4 μL aliquot of 400 μM renin substrate (DABCYL-γ-[…]) in 192 μL assay buffer (50 mM BES, 150 mM NaCl, 0.25 mg/mL bovine serum albumin, pH7.0) is added to 4 μL of test compound in DMSO at various concentrations ranging from 10 μM to 1 nM final concentrations. Next, 100 μL of trypsin-activated recombinant human renin (final enzyme concentration of 0.2-2 nM) in assay buffer is added, and the solution is mixed by pipetting. The increase in fluorescence at 495 nm (excitation at 340 nm) is measured for 60-360 minutes at rt using a Perkin-Elmer Fusion microplate reader. The slope of a linear portion of the plot of fluorescence-increase as a function of time is then determined, and the rate is used for calculating percent inhibition in relation to uninhibited control. […] (Wang G. T. et al. Anal. Biochem. 1993, 210, 351; Nakamura, N. et al. J. Biochem. (Tokyo) 1991, 109, 741; Murakami, K. et al. Anal Biochem. 1981, 110, 232).
Broadly, the IC50 is the concentration needed to halve the response being measured. Regarding `CNC[C@H](CC1CCCCC1)NC(=O)N1CCC[C@@H]([C@@H](OCCNC(=O)OC)c2cccs2)C1` [I*-9a, methyl 2-((R)-((R)-1-((S)-1-cyclohexyl-3-(methylamino)propan-2-ylcarbamoyl)piperidin-3-yl)(thiophen-2-yl)methoxy)ethylcarbamate], the IC50 was less than 1 nM.
As for `CNC[C@H](CC1CCCCC1)NC(=O)N1CCC[C@@H]([C@@H](OCCNC(=O)OC)C2CCCCC2)C1` [I*-10a, methyl 2-((S)-cyclohexyl((R)-1-((S)-1-cyclohexyl-3-(methylamino)propan-2-ylcarbamoyl)piperidin-3-yl)methoxy)ethylcarbamate], the figure is less than 10 nM; as for `CNC[C@H](CC1CCCCC1)NC(=O)N1CCC[C@@H]([C@H](OCCNC(=O)OC)c2nccs2)C1` [I*-12a, methyl 2-((S)-((R)-1-((S)-1-cyclohexyl-3-(methylamino)propan-2-ylcarbamoyl)piperidin-3-yl)(thiazol-2-yl)methoxy)ethylcarbamate], greater than 50 nM.
As for `CNC[C@H](CC1CCCCC1)NC(=O)N1CCC[C@@H]([C@@H](OCCNC(=O)OC)c2nccs2)C1` [I*-13a, methyl 2-((R)-((R)-1-((S)-1-cyclohexyl-3-(methylamino)propan-2-ylcarbamoyl)piperidin-3-yl)(thiazol-2-yl)methoxy)ethylcarbamate], the figure is less than 20 nM; as for `COCC(C)(C)C[C@H](N)CNC(=O)N1CCC[C@@H]([C@@H](OCCNC(=O)OC)c2cccc(F)c2)C1` [I*-14a, methyl 2-((R)—((R)-1-((S)-2-amino-5-methoxy-4,4-dimethylpentylcarbamoyl)piperidin-3-yl)(3-fluorophenyl)methoxy)ethylcarbamate], greater than 50 nM.
Consider `CNC[C@H](CC1CCOCC1)NC(=O)N1CCC[C@@H]([C@@H](OCCNC(=O)OC)c2cccs2)C1` [I*-15a, methyl 2-((R)-((R)-1-((S)-1-(methylamino)-3-(tetrahydro-2H-pyran-4-yl)propan-2-ylcarbamoyl)piperidin-3-yl)(thiophen-2-yl)methoxy)ethylcarbamate], for which the IC50 was greater than 50 nM.
As for `CNC[C@H](CC1CCOCC1)NC(=O)N1CCC[C@@H]([C@H](OCCNC(=O)OC)c2cccs2)C1` [I*-16a, methyl 2-((S)-((R)-1-((S)-1-(methylamino)-3-(tetrahydro-2H-pyran-4-yl)propan-2-ylcarbamoyl)piperidin-3-yl)(thiophen-2-yl)methoxy)ethylcarbamate], the figure is greater than 50 nM.
As for `CNC[C@H](CC1CCCCC1)NC(=O)N1CCC[C@@H]([C@@H](OCCNC(=O)OC)c2cccc(C)c2)C1` [I*-18a, methyl 2-((R)-((R)-1-((S)-1-cyclohexyl-3-(methylamino)propan-2-ylcarbamoyl)piperidin-3-yl)(m-tolyl)methoxy)ethylcarbamate], the figure is less than 1 nM; as for `CNC[C@@H](NC(=O)N1CCC[C@@H]([C@@H](OCCNC(=O)OC)c2ccccc2)C1)[C@@H](O)C1CCCCC1` [I*-19a, methyl 2-((R)—((R)-1-((1S,2R)-1-cyclohexyl-1-hydroxy-3-(methylamino)propan-2-ylcarbamoyl)piperidin-3-yl)(phenyl)methoxy)ethylcarbamate], less than 10 nM; as for `CNC[C@H](CC1CCOCC1)NC(=O)N1CCC[C@@H]([C@@H](OCCNC(=O)OC)c2cccc(C)c2)C1` [I*-20a, methyl 2-((R)-((R)-1-((S)-1-(methylamino)-3-(tetrahydro-2H-pyran-4-yl)propan-2-ylcarbamoyl)piperidin-3-yl)(m-tolyl)methoxy)ethylcarbamate], less than 50 nM.
As for `CNC[C@H](C[C@H]1CCCCOC1)NC(=O)N1CCC[C@@H]([C@@H](OCCNC(=O)OC)c2ccccc2)C1` [I*-21a, Methyl 2-((R)—((R)-1-((S)-1-(methylamino)-3-((R)-oxepan-3-yl)propan-2-ylcarbamoyl)piperidin-3-yl)(phenyl)methoxy)ethylcarbamate], the figure is less than 10 nM.
